One compound from US20240059740A1, “CYCLIC PEPTIDES AND USES THEREOF” (PRE[…] INC., priority 2020, published 2024) can be followed below.

What all share (format): cell-based, human
Data set [1] deals with U87 cells. The data set is described as follows: MTT assay for cytotoxicity, U87. The settings on record: 48 hours, % viability of control. The source says: The MTT (3-[4.5-dimethylthiazol-2-yl]-2,5═diphenyl tetrazolium bromide) assay is based on a process undertaken by living cells, involving the conversion of MTT into formazan crystals. This assay is used routinely to measure the in vitro cytotoxic effects of drugs on cell lines or primary patient cells (Van Meerloo et al., 2011). The MTT assay measures mitochondrial activity, so in some instances where the peptide activates mitochondrial response, the results appear to increase the number of cells present i.e. >100% cell viability.
The aim of this experiment was to identify peptide concentrations that are active on living cells and cell viability was assessed.
The glioblastoma multiforme (GBM) cell lines used were U87 and U251 cells and patient derived cells grown as oncospheres (081024 cells). Human adherent GBM cell lines U87 and U251 were cultured in RPMI medium (Life Technologies Melbourne Australia) supplemented with 5% v/v FBS, 100 U/mL penicillin and 100 μg/mL streptomycin. 081024 cells were cultrured in NeuroCult™ NS-A Proliferation medium with 0.2% (v/v) heparin, 20 ng/mL EGF and 10 ng/mL FGF.
8×10^3 U87 and 7×10^3 U251 cells per well were seeded in 96 well plates in 200 μL serum-containing RPMI medium and incubated at 37° C. with 5% CO2 for 24 hours. After one wash with serum-free medium, 100 μL serum-free medium with different concentration of peptide SEQ ID NO:1 was added to each well. After 48 hours incubation, 10 μL of 0.5 mg/mL MTT was added and incubated for 2 hours at 37° C. Formazan crystals were dissolved by 200 μL/well dimethyl sulfoxide (DMSO) and shaking for 15 minutes. The UV absorbance was read with an iMark™ microplate absorbance reader at 595 nm (Bio-Rad Laboratories). Background absorbance was subtracted and results expressed as the % viability of control (untreated cells).

The subject of data set [2] is MMP-9 mRNA. The data set is described as follows: Real time RT-PCR, MMP-9 mRNA expression. The source says:
(§1) The real-time reverse transcription polymerase chain reaction (RT-PCR) uses fluorescent reporter molecules to monitor the production of amplification products during each cycle of the PCR reaction. This combines the nucleic acid amplification and detection steps into one homogeneous assay and use of appropriate chemistries and data analysis eliminates the need for Southern blotting or DNA sequencing for amplicon identification. Its simplicity, specificity and sensitivity, together with its potential for high throughput and the ongoing introduction of new chemistries, more reliable instrumentation and improved protocols, has made real-time RT-PCR the benchmark technology for the detection and/or comparison of RNA levels.’
(§2) In order to detect and quantify the expression of specific genes at mRNA level, real-time reverse transcriptase polymerase chain reaction (Real time RT-PCR) was performed. Total RNA of samples was isolated and purified using the PureLink® RNA Mini Kit (Life technologies). The concentration of total RNA was detected by NanoDrop 2000 Spectrophotometer (Thermo Scientific). The total RNA (2000 ng) was reverse transcribed using the High-Capacity cDNA Reverse Transcription Kit (Applied Biosystems™).
(§3) The primers of target genes were TaqMan™ Gene Expression Assay for human PLAU (Hs01547054_m1), MMP-2 (Hs01548727_m1), MMP-9 (Hs00957562_m1), Snail-1 (Hs00195591_m1), Snail-2 (Hs00161904_m1), N-cadherin (Hs00983056_m1) and Twist (Hs01675818_s1). Relative quantification was done by reference to 18S ribosomal RNA (18S rRNA) and analysed using the comparative critical threshold (Ct) method
The mRNA expression of MMPs was measured using qRT-PCR. This was tested three independent times; the results are shown in Tables 9, 10 and 11 for U251, U87 cells and O81024 cells respectively. Results are reported as percent of the control cells (no treatment). Both MMP-2 and uPA were decreased in U251 by SEQ ID NO.1.
For orientation: Quantitative PCR measures a nucleic acid by following its amplification.

Data set [3] has as its system Twist mRNA. The data set is described as follows: Real time RT-PCR, Twist mRNA expression.
Source text: as §1, §2, §3
The mRNA expression of MMPs was measured using qRT-PCR. This was tested three independent times; the results are shown in Tables 9, 10 and 11 for U251, U87 cells and O81024 cells respectively. Results are reported as percent of the control cells (no treatment). Both MMP-2 and uPA were decreased in U251 by SEQ ID NO.1. […]

[4] abbreviates: 081024 cells, baseline expression level = 1.
The mark [5] stands for this setting: U87 cells, baseline expression level = 1.
The mark [6] stands for this setting: U251 cells, relative to control (no treatment).

Residues, ends and D or L forms follow the SMILES beside them.

`CC(C)C[C@@H]1NC(=O)[C@H](C)NC(=O)[C@@H](NC(=O)[C@@H]2CCCN2C(=O)[C@@H](N)CC(C)C)CSSC(C)(C)CNC(=O)CC[C@@H](C(=O)N[C@@H](CCCNC(=N)N)C(N)=O)NC(=O)[C@H](CC(=O)O)NC(=O)[C@H](CC(N)=O)NC1=O` [SEQ ID NO: 1, Leu-Pro-c(SSA*-Ala-Leu-Asn-Asp-Glu)-Arg-NH2] (HELM PEPTIDE1{L.P.C.A.L.N.D.E.R.[am]}|CHEM1{[CC(C)(CN[*:2])S[*:1]]}$PEPTIDE1,CHEM1,3:R3-1:R1|PEPTIDE1,CHEM1,8:R3-1:R2$$$V2.0; N-terminus assumed): the Cell viability in data set [1] (1 μM) was found to be 96.34%; in data set [1] (5 μM), 102.4%; in data set [1] (10 μM), 100.1%; in data set [1] (50 μM) it was 98.71%; in data set [1] (100 μM), 102.8%; in data set [1] (500 μM) it was 96.94%. In addition, in data set [1] (1 mM), the Cell viability is recorded as 83.41%. In addition, the entries for the “mRNA expression, MMP-9” value in data set [2] (setting [4]), in data set [2] (setting [5]) and in data set [2] (setting [6]) were 0.63, 0.66 and 0.73, respectively. For the same compound, the “mRNA expression, Twist” value stood at 0.94 in data set [3] (setting [4]), 0.79 in data set [3] (setting [5]) and 0.91 in data set [3] (setting [6]).
